Data from PubChem BioAssay (NCI).
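GI50 marks 50% less growth. TGI is the concentration that stops growth completely.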

Key:
Experiment in all cases: growth of human tumour cells (NCI), 384-well format
SF-268 CNS = tested on: SF-268 CNS
U251 glioblastoma = tested on: U251 glioblastoma
HOP-92 NSCLC = tested on: HOP-92 NSCLC
KM12 colon = tested on: KM12 colon
MALME-3M melanoma = tested on: MALME-3M melanoma
RPMI-8226 leukemia = tested on: RPMI-8226 leukemia
IGROV1 ovarian = tested on: IGROV1 ovarian
HCC-2998 colon = tested on: HCC-2998 colon
EKVX NSCLC = tested on: EKVX NSCLC
OVCAR-8 ovarian = tested on: OVCAR-8 ovarian
SK-MEL-28 melanoma = tested on: SK-MEL-28 melanoma
A498 renal = tested on: A498 renal
PC-3 prostate = tested on: PC-3 prostate
UO-31 renal = tested on: UO-31 renal
SF-295 CNS = tested on: SF-295 CNS
T-47D breast = tested on: T-47D breast
HOP-62 NSCLC = tested on: HOP-62 NSCLC
ACHN renal = tested on: ACHN renal
SF-539 CNS = tested on: SF-539 CNS
A549 NSCLC = tested on: A549 NSCLC
RXF 393 renal = tested on: RXF 393 renal
SR leukemia = tested on: SR leukemia
MDA-MB-231 breast = tested on: MDA-MB-231 breast
NCI-H460 NSCLC = tested on: NCI-H460 NSCLC
OVCAR-5 ovarian = tested on: OVCAR-5 ovarian
786-0 renal = tested on: 786-0 renal
NCI/ADR-RES ovarian = tested on: NCI/ADR-RES ovarian
COLO 205 colon = tested on: COLO 205 colon
SK-OV-3 ovarian = tested on: SK-OV-3 ovarian
SN12C renal = tested on: SN12C renal
MCF7 breast = tested on: MCF7 breast
MOLT-4 leukemia = tested on: MOLT-4 leukemia
DU-145 prostate = tested on: DU-145 prostate
HCT-15 colon = tested on: HCT-15 colon
M14 melanoma = tested on: M14 melanoma
BT-549 breast = tested on: BT-549 breast
NCI-H23 lung = tested on: NCI-H23 lung
HCT-116 colon = tested on: HCT-116 colon
MDA-MB-435 melanoma = tested on: MDA-MB-435 melanoma
UACC-62 melanoma = tested on: UACC-62 melanoma
OVCAR-4 ovarian = tested on: OVCAR-4 ovarian
HT29 colon = tested on: HT29 colon
NCI-H322M lung = tested on: NCI-H322M lung
CAKI-1 renal = tested on: CAKI-1 renal
TK-10 renal = tested on: TK-10 renal
LOX IMVI melanoma = tested on: LOX IMVI melanoma
SNB-19 CNS = tested on: SNB-19 CNS
OVCAR-3 ovarian = tested on: OVCAR-3 ovarian
NCI-H522 lung = tested on: NCI-H522 lung
SW-620 colon = tested on: SW-620 colon
UACC-257 melanoma = tested on: UACC-257 melanoma
SNB-75 CNS = tested on: SNB-75 CNS
NCI-H226 lung = tested on: NCI-H226 lung
MDA-MB-468 breast = tested on: MDA-MB-468 breast
SK-MEL-5 melanoma = tested on: SK-MEL-5 melanoma
HS 578T breast = tested on: HS 578T breast

Cn1cnc2c(F)c(Nc3ccc(Br)cc3Cl)c(C(=O)NOCCO)cc21
GI50 (SF-268 CNS): > 100 µM
TGI (SF-268 CNS): > 100 µM
GI50 (U251 glioblastoma): 19.5 µM
TGI (U251 glioblastoma): > 100 µM
GI50 (HOP-92 NSCLC): 2.08 µM
TGI (HOP-92 NSCLC): 14.5 µM
GI50 (KM12 colon): 0.481 µM
TGI (KM12 colon): > 100 µM
GI50 (MALME-3M melanoma): 0.0114 µM
TGI (MALME-3M melanoma): 0.0363 µM
GI50 (RPMI-8226 leukemia): 21.1 µM
TGI (RPMI-8226 leukemia): > 100 µM
GI50 (IGROV1 ovarian): 0.914 µM
TGI (IGROV1 ovarian): 47 µM
GI50 (HCC-2998 colon): 0.0284 µM
TGI (HCC-2998 colon): 1.3 µM
GI50 (EKVX NSCLC): 18.6 µM
TGI (EKVX NSCLC): > 100 µM
GI50 (OVCAR-8 ovarian): 67.4 µM
TGI (OVCAR-8 ovarian): > 100 µM
GI50 (SK-MEL-28 melanoma): 0.0217 µM
TGI (SK-MEL-28 melanoma): 0.147 µM
GI50 (A498 renal): 3.46 µM
TGI (A498 renal): 35.4 µM
GI50 (PC-3 prostate): > 100 µM
TGI (PC-3 prostate): > 100 µM
GI50 (UO-31 renal): 3.21 µM
TGI (UO-31 renal): 21.2 µM
GI50 (SF-295 CNS): > 100 µM
TGI (SF-295 CNS): > 100 µM
GI50 (T-47D breast): 84.8 µM
TGI (T-47D breast): > 100 µM
GI50 (HOP-62 NSCLC): 1.22 µM
TGI (HOP-62 NSCLC): > 100 µM
GI50 (ACHN renal): 6.87 µM
TGI (ACHN renal): > 100 µM
GI50 (SF-539 CNS): 12.2 µM
TGI (SF-539 CNS): 56.5 µM
GI50 (A549 NSCLC): 0.58 µM
TGI (A549 NSCLC): > 100 µM
GI50 (RXF 393 renal): 0.101 µM
TGI (RXF 393 renal): 12.3 µM
GI50 (SR leukemia): 47 µM
TGI (SR leukemia): > 100 µM
GI50 (MDA-MB-231 breast): 1.06 µM
TGI (MDA-MB-231 breast): 17.3 µM
GI50 (NCI-H460 NSCLC): > 100 µM
TGI (NCI-H460 NSCLC): > 100 µM
GI50 (OVCAR-5 ovarian): 0.205 µM
TGI (OVCAR-5 ovarian): > 100 µM
GI50 (786-0 renal): 12.2 µM
TGI (786-0 renal): > 100 µM
GI50 (NCI/ADR-RES ovarian): > 100 µM
TGI (NCI/ADR-RES ovarian): > 100 µM
GI50 (COLO 205 colon): 0.02 µM
TGI (COLO 205 colon): 0.122 µM
GI50 (SK-OV-3 ovarian): > 100 µM
TGI (SK-OV-3 ovarian): > 100 µM
GI50 (SN12C renal): 7.8 µM
TGI (SN12C renal): > 100 µM
GI50 (MCF7 breast): > 100 µM
TGI (MCF7 breast): > 100 µM
GI50 (MOLT-4 leukemia): 49 µM
TGI (MOLT-4 leukemia): > 100 µM
GI50 (DU-145 prostate): 42.4 µM
TGI (DU-145 prostate): > 100 µM
GI50 (HCT-15 colon): 21.5 µM
TGI (HCT-15 colon): > 100 µM
GI50 (M14 melanoma): 0.0211 µM
TGI (M14 melanoma): 0.144 µM
GI50 (BT-549 breast): 6.05 µM
TGI (BT-549 breast): 52.1 µM
GI50 (NCI-H23 lung): 0.26 µM
TGI (NCI-H23 lung): 9.91 µM
GI50 (HCT-116 colon): 0.553 µM
TGI (HCT-116 colon): 12.2 µM
GI50 (MDA-MB-435 melanoma): 0.266 µM
TGI (MDA-MB-435 melanoma): > 100 µM
GI50 (UACC-62 melanoma): 0.0318 µM
TGI (UACC-62 melanoma): 0.311 µM
GI50 (OVCAR-4 ovarian): 14.4 µM
TGI (OVCAR-4 ovarian): > 100 µM
GI50 (HT29 colon): 0.0948 µM
TGI (HT29 colon): > 100 µM
GI50 (NCI-H322M lung): 0.363 µM
TGI (NCI-H322M lung): > 100 µM
GI50 (CAKI-1 renal): 1.73 µM
TGI (CAKI-1 renal): > 100 µM
GI50 (TK-10 renal): 42.4 µM
TGI (TK-10 renal): > 100 µM
GI50 (LOX IMVI melanoma): 0.425 µM
TGI (LOX IMVI melanoma): 13.5 µM
GI50 (SNB-19 CNS): 51.5 µM
TGI (SNB-19 CNS): > 100 µM
GI50 (OVCAR-3 ovarian): 44.9 µM
TGI (OVCAR-3 ovarian): > 100 µM
GI50 (NCI-H522 lung): 42.8 µM
TGI (NCI-H522 lung): > 100 µM
GI50 (SW-620 colon): 0.039 µM
TGI (SW-620 colon): > 100 µM
GI50 (UACC-257 melanoma): 0.0456 µM
TGI (UACC-257 melanoma): 0.278 µM
GI50 (SNB-75 CNS): 3.12 µM
TGI (SNB-75 CNS): 85.9 µM
GI50 (NCI-H226 lung): 0.267 µM
TGI (NCI-H226 lung): 38.7 µM
GI50 (MDA-MB-468 breast): 55.3 µM
TGI (MDA-MB-468 breast): > 100 µM
GI50 (SK-MEL-5 melanoma): 0.0449 µM
TGI (SK-MEL-5 melanoma): 0.616 µM
GI50 (HS 578T breast): 17.5 µM
TGI (HS 578T breast): > 100 µM
